Half-life and IC50 data for 18 molecules are collected here from patent publication US9187434B2, “Substituted 1,5-benzodiazepinones compounds” (BRISTOL-MYERS SQUIBB COMPANY, priority 2012, dated 2015).

Bounds are passed on as bounds.

Tested on in one data set: not listed separately
As to the kind of experiment: Human metabolic stability half-life assay. The following applies: liver microsomes, pH 7.4, human liver microsomes, 0.5 μM compound, NADPH, 45-minute time course, read-out: HLM t1/2. It is filed as in vitro ADME. From the text:
Metabolic Stability Half-Life Panel
(Liver microsomes are a subcellular fraction often used to study metabolism.)
Consider `N#Cc1cccc(N2C[C@H](NC(=O)[C@H](CCC(F)(F)F)[C@H](CC3CC3)C(N)=O)C(=O)Nc3c(Cl)cccc32)c1` [Example 25, (2R,3S)—N-((3S)-6-Chloro-1-(3-cyanophenyl)-4-oxo-2,3,4,5-tetrahydro-1H-1,5-benzodiazepin-3-yl)-3-(cyclopropylmethyl)-2-(3,3,3-trifluoropropyl)succinamide], for which the half-life at 0.5 μM is at least 31 min. Still for that read-out and setting: next, `NC(=O)[C@@H](c1ccccc1)[C@@H](CCC(F)(F)F)C(=O)N[C@H]1CN(c2cccc(C(F)(F)F)n2)c2cccc(Cl)c2NC1=O` [Example 34, (2R,3R)—N-((3S)-6-Chloro-4-oxo-1-(6-(trifluoromethyl)-2-pyridinyl)-2,3,4,5-tetrahydro-1H-1,5-benzodiazepin-3-yl)-3-phenyl-2-(3,3,3-trifluoropropyl)succinamide]: at least 31 min; `NC(=O)[C@@H](CCC(F)(F)F)[C@@H](CCC(F)(F)F)C(=O)N[C@H]1CN(c2cccc(Cl)c2)c2cccc(Cl)c2NC1=O` [Example 31, (2R,3S)—N-((3S)-6-Chloro-1-(3-chlorophenyl)-4-oxo-2,3,4,5-tetrahydro-1H-1,5-benzodiazepin-3-yl)-2,3-bis(3,3,3-trifluoropropyl)succinamide]: at least 31 min.

Regarding `NC(=O)[C@@H](CCC(F)(F)F)[C@@H](CCC(F)(F)F)C(=O)N[C@H]1CN(c2cccc(C3CC3)c2)c2cccc(Cl)c2NC1=O` [Example 1, (2R,3S)—N-((3S)-6-Chloro-1-(3-cyclopropylphenyl)-4-oxo-2,3,4,5-tetrahydro-1H-1,5-benzodiazepin-3-yl)-2,3-bis(3,3,3-trifluoropropyl)succinamide], the half-life at 0.5 μM is at least 31 min. The same measure, in the same setting: next, `NC(=O)[C@@H](CC1CC1)[C@@H](CCC(F)(F)F)C(=O)N[C@H]1CN(c2cccc(C3CC3)c2)c2cccc(F)c2NC1=O` [Example 15, (2R,3S)-3-(Cyclopropylmethyl)-N-((3S)-1-(3-cyclopropylphenyl)-6-fluoro-4-oxo-2,3,4,5-tetrahydro-1H-1,5-benzodiazepin-3-yl)-2-(3,3,3-trifluoropropyl)succinamide]: at least 31 min. Same read-out and setting: then `NC(=O)[C@@H](CCC(F)(F)F)[C@@H](CCC(F)(F)F)C(=O)N[C@H]1CN(c2cccc(Cl)c2)c2cccc(C3CC3)c2NC1=O` [Example 7, (2R,3S)—N-((3S)-1-(3-Chlorophenyl)-6-cyclopropyl-4-oxo-2,3,4,5-tetrahydro-1H-1,5-benzodiazepin-3-yl)-2,3-bis(3,3,3-trifluoropropyl)succinamide], with at least 31 min. Turning to `NC(=O)[C@@H](CC1CC1)[C@@H](CCC(F)(F)F)C(=O)N[C@H]1CN(c2cccc(C3CC3)c2)c2cccc(Cl)c2NC1=O` [Example 29, (2R,3S)—N-((3S)-6-Chloro-1-(3-cyclopropylphenyl)-4-oxo-2,3,4,5-tetrahydro-1H-1,5-benzodiazepin-3-yl)-3-(cyclopropylmethyl)-2-(3,3,3-trifluoropropyl)succinamide], the half-life at 0.5 μM is at least 31 min. For the molecule `N#Cc1cc(F)cc(N2C[C@H](NC(=O)[C@H](CCC(F)(F)F)[C@H](CC3CC3)C(N)=O)C(=O)Nc3c(Cl)cccc32)c1` [Example 28, (2R,3S)—N-((3S)-6-Chloro-1-(3-cyano-5-fluorophenyl)-4-oxo-2,3,4,5-tetrahydro-1H-1,5-benzodiazepin-3-yl)-3-(cyclopropylmethyl)-2-(3,3,3-trifluoropropyl)succinamide], the half-life at 0.5 μM is at least 31 min. Still for that read-out and setting: then `NC(=O)[C@@H](CCC(F)(F)F)[C@@H](CCC(F)(F)F)C(=O)N[C@H]1CN(c2cccc(C3CC3)c2)c2ccccc2NC1=O` [Example 5, (2R,3S)—N-((3S)-1-(3-Cyclopropylphenyl)-4-oxo-2,3,4,5-tetrahydro-1H-1,5-benzodiazepin-3-yl)-2,3-bis(3,3,3-trifluoropropyl)succinamide], with at least 31 min; and `NC(=O)[C@@H](CCC(F)(F)F)[C@@H](CCC(F)(F)F)C(=O)N[C@H]1CN(c2cccc(Cl)c2)c2ccccc2NC1=O` [Example 3, (2R,3S)—N-((3S)-1-(3-Chlorophenyl)-4-oxo-2,3,4,5-tetrahydro-1H-1,5-benzodiazepin-3-yl)-2,3-bis(3,3,3-trifluoropropyl)succinamide], with at least 31 min.

For the molecule `N#Cc1ccccc1N1C[C@H](NC(=O)[C@H](CCC(F)(F)F)[C@H](CC2CC2)C(N)=O)C(=O)Nc2c(Cl)cccc21` [Example 26, (2R,3S)—N-((3S)-6-Chloro-1-(2-cyanophenyl)-4-oxo-2,3,4,5-tetrahydro-1H-1,5-benzodiazepin-3-yl)-3-(cyclopropylmethyl)-2-(3,3,3-trifluoropropyl)succinamide], the half-life at 0.5 μM is at least 31 min.

On to `NC(=O)[C@@H](CCC(F)(F)F)[C@@H](CCC(F)(F)F)C(=O)N[C@H]1CN(c2ccccc2)c2ccc(F)cc2NC1=O` [Example 37, (2R,3S)—N-((3S)-7-Fluoro-4-oxo-1-phenyl-2,3,4,5-tetrahydro-1H-1,5-benzodiazepin-3-yl)-2,3-bis(3,3,3-trifluoropropyl)succinamide], for which the half-life at 0.5 μM is at least 31 min.

Take `NC(=O)[C@@H](CCC(F)(F)F)[C@@H](CCC(F)(F)F)C(=O)N[C@H]1CN(c2ccccn2)c2cccc(Cl)c2NC1=O` [Example 33, (2R,3S)—N-((3S)-6-Chloro-4-oxo-1-(2-pyridinyl)-2,3,4,5-tetrahydro-1H-1,5-benzodiazepin-3-yl)-2,3-bis(3,3,3-trifluoropropyl)succinamide]: the half-life at 0.5 μM is at least 31 min.

The next data set concerns human Notch 1. The data set can be described thus: Notch-CBF1 Transactivation Assay (Notch 1). The data set is classed as cell-based. Particulars: HeLa cells co-transfected with truncated Notch 1 and CBF1 luciferase reporter; 18 hours incubation. The text has this:
(§1) Notch-CBF1 Transactivation Assay
(§2) Table 12 denotes respective DNA quantity for the transfections.
(§3) Duplicates were used for each sample.
In general terms: Reporter assays use an easily measured gene product as a stand-in for the process of interest.
`NC(=O)[C@@H](CCC(F)(F)F)[C@@H](CCC(F)(F)F)C(=O)N[C@H]1CN(c2ccc(F)cc2)c2ccccc2NC1=O` [Example 6, (2R,3S)—N-((3S)-1-(4-Fluorophenyl)-4-oxo-2,3,4,5-tetrahydro-1H-1,5-benzodiazepin-3-yl)-2,3-bis(3,3,3-trifluoropropyl)succinamide] yielded an IC50 of 0.0139 µM. The same measure, in the same setting: next, `N#Cc1cccc(N2C[C@H](NC(=O)[C@H](CCC(F)(F)F)[C@H](CC3CC3)C(N)=O)C(=O)Nc3c(Cl)cccc32)c1` [Example 25, (2R,3S)—N-((3S)-6-Chloro-1-(3-cyanophenyl)-4-oxo-2,3,4,5-tetrahydro-1H-1,5-benzodiazepin-3-yl)-3-(cyclopropylmethyl)-2-(3,3,3-trifluoropropyl)succinamide]: 0.0146 µM; `N#Cc1cccc(N2C[C@H](NC(=O)[C@H](CCC(F)(F)F)[C@H](CCC(F)(F)F)C(N)=O)C(=O)Nc3c(C(F)F)cccc32)c1` [Example 10, (2R,3S)—N-((3S)-1-(3-Cyanophenyl)-6-(difluoromethyl)-4-oxo-2,3,4,5-tetrahydro-1H-1,5-benzodiazepin-3-yl)-2,3-bis(3,3,3-trifluoropropyl)succinamide]: 0.012 µM. Still for that read-out and setting: next, `NC(=O)[C@@H](CCC(F)(F)F)[C@@H](CCC(F)(F)F)C(=O)N[C@H]1CN(c2ccc(Cl)cc2)c2ccccc2NC1=O` [Example 4, (2R,3S)—N-((3S)-1-(4-Chlorophenyl)-4-oxo-2,3,4,5-tetrahydro-1H-1,5-benzodiazepin-3-yl)-2,3-bis(3,3,3-trifluoropropyl)succinamide]: 0.0174 µM; `N#Cc1ccccc1N1C[C@H](NC(=O)[C@H](CCC(F)(F)F)[C@H](CC2CC2)C(N)=O)C(=O)Nc2c(Cl)cccc21` [Example 26, (2R,3S)—N-((3S)-6-Chloro-1-(2-cyanophenyl)-4-oxo-2,3,4,5-tetrahydro-1H-1,5-benzodiazepin-3-yl)-3-(cyclopropylmethyl)-2-(3,3,3-trifluoropropyl)succinamide]: 0.0225 µM; `N#Cc1cccc(N2C[C@H](NC(=O)[C@H](CCC(F)(F)F)[C@H](CCC(F)(F)F)C(N)=O)C(=O)Nc3c(F)cccc32)c1` [Example 17, (2R,3S)—N-((3S)-1-(3-Cyanophenyl)-6-fluoro-4-oxo-2,3,4,5-tetrahydro-1H-1,5-benzodiazepin-3-yl)-2,3-bis(3,3,3-trifluoropropyl)succinamide]: 0.0176 µM. With `N#Cc1cccc(N2C[C@H](NC(=O)[C@H](CCC(F)(F)F)[C@H](CCC(F)(F)F)C(N)=O)C(=O)Nc3c(Cl)cccc32)c1` [Example 23, (2R,3S)—N-((3S)-6-Chloro-1-(3-cyanophenyl)-4-oxo-2,3,4,5-tetrahydro-1H-1,5-benzodiazepin-3-yl)-2,3-bis(3,3,3-trifluoropropyl)succinamide], the IC50 worked out at 0.0116 µM.

A further data set concerns human Notch 3. The data set can be described thus: Notch-CBF1 Transactivation Assay (Notch 3). It is filed as cell-based. The following applies: HeLa cells co-transfected with truncated Notch 3 and CBF1 luciferase reporter; 18 hours incubation.
Description: as §1, §2, §3
For `N#Cc1ccccc1N1C[C@H](NC(=O)[C@H](CCC(F)(F)F)[C@H](CC2CC2)C(N)=O)C(=O)Nc2c(Cl)cccc21` [Example 26, (2R,3S)—N-((3S)-6-Chloro-1-(2-cyanophenyl)-4-oxo-2,3,4,5-tetrahydro-1H-1,5-benzodiazepin-3-yl)-3-(cyclopropylmethyl)-2-(3,3,3-trifluoropropyl)succinamide], half-maximal inhibition (IC50) was put at 0.0462 µM.

As usually defined, the IC50 is the concentration needed to halve the response being measured.
